# Target: Autotaxin (Homo sapiens, UniProt Q13822)
# Assay: Quanta Red Assay: Measuring ATX activity using an enzyme coupled Quanta Red assay (Thermo Scientific Pierce Protein Research Products, Product #15159) was determined as follows. 8 μL human recombinant ATX (final concentration 0.8 μg/mL) in 1× Assay buffer containing 50 mM Tris-HCl (pH 8.0), 5 mM CaCl2 was added to an opaque black flat-bottom 384-well plate (Corning, #3575) containing 2 μL test compound in 40% DMSO (4% final DMSO concentration). 10 μL of Quanta Red, Horseradish peroxidase (HRP), Choline Oxidase (CO), Rac-1-Palmitoyl-glycero-3-phosphocholine solution (final concentration 1:250 for Quanta Red, 0.5units/ml HRP, 0.5units/ml CO, 15 μM Rac-1-Palmitoyl-glycero-3-phosphocholine) in 1× assay buffer (as described previously) was added to each well to start the reaction and the plate was incubated at room temperature for 2 hours. The reaction was stopped after 2 hours with a 20 μL addition of Quanta Red Stop solution (1:20 dilution in distilled water). The above-described mixture with DMSO alone was used as a positive control whereas that with DMSO alone without ATX was taken as a negative control. For each test compound, ten concentrations were measured covering a range of 6.1 nM to 120 μM to determine IC50 values. The top concentration was decreased to 1.2 μM when a test compound's IC50 value was evaluated in low nanomolar range. Fluorescence was determined in a BMG Labtech Pherastar plus plate reader (λ emission=540 nm, λ excitation=590 nm). Data were analysed using Excel fit software.
row,Compound,IC50 [nM]
1,CCCN(CC)Cc1ccc(N2CC(C(=O)Nc3nnc(CCc4ccc(Cl)cc4)s3)CC2=O)cc1 (stereo not drawn),4
2,O=C(Nc1nnc(CCC2CCOCC2)s1)C1CC(=O)N(c2ccc(CN3CCOCC3)cc2)C1 (stereo not drawn),358
3,O=C1CN(Cc2ccc(N3C[C@H](NC(=O)c4nnc(CCc5ccc(Cl)cc5)s4)CC3=O)cc2)CCN1,8
4,CCCN(C)Cc1ccc(N2CC(C(=O)Nc3nnc(CCc4ccc(Cl)cc4)s3)CC2=O)cc1 (stereo not drawn),3
5,CCC(C)CCc1nnc(NC(=O)C2CC(=O)N(c3ccc(CN4CCOCC4)cc3)C2)s1 (stereo not drawn),11

# Continued, values first:
row,IC50 [nM],Compound
1,124,CN1CCN(Cc2ccc(N3C[C@H](NC(=O)c4nnc(CCc5ccc(Cl)cc5)s4)CC3=O)cc2)CC1
2,5,O=C(Nc1cc(CCc2ccc(Cl)cc2)[nH]n1)C1CC(=O)N(c2ccc(CN3CCOCC3)cc2)C1 (stereo not drawn)
3,3,O=C(Nc1nnc(CCC2CCCC2)s1)C1CC(=O)N(c2ccc(CN3CCOCC3)cc2)C1 (stereo not drawn)
